Measured values taken from patent publication US8722849B2, “Polypeptides” (Novo Nordisk A/S, priority 2011, dated 2014).
Starred links: 1 amine or outer side, 2 acyl side, 3 side chain; linkers in the order of their positions; H or OH if unused. Positions of bridges follow the written chain, without caps; N, C: chain ends. Residues, ends and D or L forms follow the SMILES beside them. Groups on a side chain read outwards from the residue. *: point of attachment. C20 diacid = O=C(O)CCCCCCCCCCCCCCCCCCC(=O)*; C18 diacid = O=C(O)CCCCCCCCCCCCCCCCC(=O)*; γGlu = O=C(O)[C@H](CCC(=O)[*:2])N[*:1]; AEEA = NCCOCCOCC(=O)O

Columns and labels:
food intake = test: Assay (I) efficacy testing on appetite (food intake), ad libitum fed rat model; type: in vivo, Sprague Dawley (SD) rats; conditions: 3 nmol/kg
Outline: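 Sprague Dawley rats (200–250 g), single-housed under reversed light cycle with free food and water, got one ip, po or sc dose of 0.01–3 mg/kg just before lights-off. Individual food intake recorded hourly for 7 h, then at 24 h and sometimes 48 h; groups of 5–8, Grubbs outliers excluded.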

[1] = Assay (III) ThT fibrillation assay for physical stability; type: physicochemical
Outline: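 Freshly prepared formulations, pH-adjusted, with 1 μM ThT; four or eight replicates incubated at 37 °C under 960 rpm orbital shaking. Fluorescence (ex 444/em 485 nm) read every 20 min; […]. Peptide concentration measured by RP-HPLC before and after the run.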

[2] = Assay (IX) pK, determination of T½ in mini-pig; type: in vivo, Göttingen mini-pigs; conditions: male, Göttingen, iv, 2 nmol/kg; minipig; plasma terminal half-life

ThT pH 4.0 lag time ([1]; Table 8) | ThT pH 4.0 lag time ([1]; Table 9) | ThT pH 4.0 lag time ([1]; ThT fibrillation assay) | ThT pH 4.0 lag time (h) ([1]; ThT fibrillation assay) | half-life [2] | Compound | Food intake reduction 0-24 h 3 nmol/kg (%) (food intake) | Food intake reduction 24-48 h 3 nmol/kg (%) (food intake)
>45 h | >45 h | >45 h | >45 h | 107 h | CC[C@H](C)[C@H](NC(=O)[C@@H]1CCCN1C(=O)CNC(=O)[C@H](Cc1ccccc1)NC(=O)[C@H](CC(N)=O)NC(=O)[C@H](CC(N)=O)NC(=O)[C@H](CO)NC(=O)[C@H](CO)NC(=O)[C@H](Cc1c[nH]cn1)NC(=O)[C@H](Cc1c[nH]cn1)NC(=O)[C@H](CC(C)C)NC(=O)[C@H](Cc1ccccc1)NC(=O)[C@H](CCC(=O)O)NC(=O)[C@H](C)NC(=O)[C@H](CC(C)C)NC(=O)[C@H](CCCNC(=N)N)NC(=O)[C@H](CCC(N)=O)NC(=O)[C@@H](NC(=O)[C@H](C)NC(=O)[C@@H]1CSSC[C@H](NC(=O)[C@H](CCCNC(=N)N)NC(=O)CC[C@H](NC(=O)CCCCCCCCCCCCCCCCCCC(=O)O)C(=O)O)C(=O)N[C@@H](CC(N)=O)C(=O)N[C@@H]([C@@H](C)O)C(=O)N[C@@H](C)C(=O)N[C@@H]([C@@H](C)O)C(=O)N1)[C@@H](C)O)C(=O)N[C@@H](CC(C)C)C(=O)N1CCC[C@H]1C(=O)N1CCC[C@H]1C(=O)N[C@H](C(=O)N[C@@H](CC(N)=O)C(=O)N[C@H](C(=O)NCC(=O)N[C@@H](CO)C(=O)N[C@@H](CC(N)=O)C(=O)N[C@H](C(=O)N1CCC[C@H]1C(N)=O)[C@@H](C)O)C(C)C)[C@@H](C)O [Example 96, N-alpha-[(S)-4-Carboxy-4-(19-carboxynonadecanoylamino)butyryl]-[Arg1,Glu14,His17,Pro37]-pramlintide] ({C20 diacid-γGlu}-RCNTATCATQRLAEFLHHSSNNFGPILPPTNVGSNTP-NH2; disulfide 2-7 (inferred)) | 69% | 89%
– | – | – | 16 h | – | CC[C@H](C)[C@H](NC(=O)[C@@H]1CCCN1C(=O)CNC(=O)[C@H](Cc1ccccc1)NC(=O)[C@H](CC(N)=O)NC(=O)[C@H](CC(N)=O)NC(=O)[C@H](CO)NC(=O)[C@H](CO)NC(=O)[C@H](Cc1c[nH]cn1)NC(=O)[C@H](Cc1c[nH]cn1)NC(=O)[C@H](CC(C)C)NC(=O)[C@H](Cc1ccccc1)NC(=O)[C@H](CCC(=O)O)NC(=O)[C@H](C)NC(=O)[C@H](CC(C)C)NC(=O)[C@H](CCCNC(=N)N)NC(=O)[C@H](CCC(N)=O)NC(=O)[C@@H](NC(=O)[C@H](C)NC(=O)[C@@H]1CSSC[C@H](NC(=O)[C@H](CCCCN)NC(=O)[C@H](CCC(=O)O)NC(=O)CC[C@H](NC(=O)CCCCCCCCCCCCCCCCCCC(=O)O)C(=O)O)C(=O)N[C@@H](CC(N)=O)C(=O)N[C@@H]([C@@H](C)O)C(=O)N[C@@H](C)C(=O)N[C@@H]([C@@H](C)O)C(=O)N1)[C@@H](C)O)C(=O)N[C@@H](CC(C)C)C(=O)N1CCC[C@H]1C(=O)N1CCC[C@H]1C(=O)N[C@H](C(=O)N[C@@H](CC(N)=O)C(=O)N[C@H](C(=O)NCC(=O)N[C@@H](CO)C(=O)N[C@@H](Cc1c[nH]cn1)C(=O)N[C@H](C(=O)N[C@@H](Cc1ccc(O)cc1)C(N)=O)[C@@H](C)O)C(C)C)[C@@H](C)O [Example 56, N-alpha-[(S)-4-Carboxy-4-(19-carboxynonadecanoylamino)butyryl]-Glu-[Glu14,His17,His35]-pramlintide] ({C20 diacid-γGlu}-EKCNTATCATQRLAEFLHHSSNNFGPILPPTNVGSHTY-NH2; disulfide 3-8 (inferred)) | 46% | 21%
– | – | – | 0 h | – | CC[C@H](C)[C@H](NC(=O)[C@H](CCC(=O)O)NC(=O)CNC(=O)[C@H](Cc1ccccc1)NC(=O)[C@H](CC(N)=O)NC(=O)[C@H](CC(N)=O)NC(=O)[C@H](CO)NC(=O)[C@H](CO)NC(=O)[C@H](CCCNC(=N)N)NC(=O)[C@H](Cc1c[nH]cn1)NC(=O)[C@H](CC(C)C)NC(=O)[C@H](Cc1ccccc1)NC(=O)[C@H](CCC(=O)O)NC(=O)[C@H](C)NC(=O)[C@H](CC(C)C)NC(=O)[C@H](CCCNC(=N)N)NC(=O)[C@H](CCC(N)=O)NC(=O)[C@@H](NC(=O)[C@H](C)NC(=O)[C@@H]1CSSC[C@H](NC(=O)[C@H](Cc2c[nH]cn2)NC(=O)CC[C@H](NC(=O)CCCCCCCCCCCCCCCCCCC(=O)O)C(=O)O)C(=O)N[C@@H](CC(N)=O)C(=O)N[C@@H]([C@@H](C)O)C(=O)N[C@@H](C)C(=O)N[C@@H]([C@@H](C)O)C(=O)N1)[C@@H](C)O)C(=O)N[C@@H](CC(C)C)C(=O)N[C@@H](CO)C(=O)N[C@@H](CCCNC(=N)N)C(=O)N[C@H](C(=O)N[C@@H](CC(N)=O)C(=O)N[C@H](C(=O)NCC(=O)N[C@@H](CO)C(=O)N[C@@H](CC(N)=O)C(=O)N[C@H](C(=O)N[C@@H](Cc1ccc(O)cc1)C(N)=O)[C@@H](C)O)C(C)C)[C@@H](C)O [Example 7, N-alpha-[(S)-4-Carboxy-4-(19-carboxynonadecanoylamino)butyryl]-[His1,Glu14,His17,Arg18,Glu25,Ser28,Arg29]-pramlintide] ({C20 diacid-γGlu}-HCNTATCATQRLAEFLHRSSNNFGEILSRTNVGSNTY-NH2; disulfide 2-7 (inferred); C-terminus assumed) | 53% | 46%
>45 h | >45 h | >45 h | >45 h | – | CC[C@H](C)[C@H](NC(=O)[C@@H]1CCCN1C(=O)CNC(=O)[C@H](Cc1ccccc1)NC(=O)[C@H](CC(N)=O)NC(=O)[C@H](CCC(N)=O)NC(=O)[C@H](CO)NC(=O)[C@H](CO)NC(=O)[C@H](Cc1c[nH]cn1)NC(=O)[C@H](Cc1c[nH]cn1)NC(=O)[C@H](CC(C)C)NC(=O)[C@H](Cc1ccccc1)NC(=O)[C@H](CCC(=O)O)NC(=O)[C@H](C)NC(=O)[C@H](CC(C)C)NC(=O)[C@H](CCCNC(=N)N)NC(=O)[C@H](CCC(N)=O)NC(=O)[C@@H](NC(=O)[C@H](C)NC(=O)[C@@H]1CSSC[C@H](NC(=O)[C@H](CCCCN)NC(=O)CC[C@H](NC(=O)CCCCCCCCCCCCCCCCCCC(=O)O)C(=O)O)C(=O)N[C@@H](CC(N)=O)C(=O)N[C@@H]([C@@H](C)O)C(=O)N[C@@H](C)C(=O)N[C@@H]([C@@H](C)O)C(=O)N1)[C@@H](C)O)C(=O)N[C@@H](CC(C)C)C(=O)N1CCC[C@H]1C(=O)N1CCC[C@H]1C(=O)N[C@H](C(=O)N[C@@H](CC(N)=O)C(=O)N[C@H](C(=O)NCC(=O)N[C@@H](CO)C(=O)N[C@@H](Cc1c[nH]cn1)C(=O)N[C@H](C(=O)N[C@@H](Cc1ccc(O)cc1)C(N)=O)[C@@H](C)O)C(C)C)[C@@H](C)O [Example 117, N-alpha-[(S)-4-Carboxy-4-(19-carboxynonadecanoylamino)butyryl]-[Glu14,His17,Gln21,His35)-pramlintide] ({C20 diacid-γGlu}-KCNTATCATQRLAEFLHHSSQNFGPILPPTNVGSHTY-NH2; disulfide 2-7 (inferred); C-terminus assumed) | 50% | 35%
>45 h | – | >45 h | >45 h | – | CC[C@H](C)[C@H](NC(=O)[C@H](CCCCNC(=O)COCCOCCNC(=O)COCCOCCNC(=O)CC[C@H](NC(=O)CCCCCCCCCCCCCCCCC(=O)O)C(=O)O)NC(=O)CNC(=O)[C@H](Cc1ccccc1)NC(=O)[C@H](CC(N)=O)NC(=O)[C@H](CC(N)=O)NC(=O)[C@H](CO)NC(=O)[C@H](CO)NC(=O)[C@H](Cc1c[nH]cn1)NC(=O)[C@H](Cc1c[nH]cn1)NC(=O)[C@H](CC(C)C)NC(=O)[C@H](Cc1ccccc1)NC(=O)[C@H](CCC(=O)O)NC(=O)[C@H](C)NC(=O)[C@H](CC(C)C)NC(=O)[C@H](CCCNC(=N)N)NC(=O)[C@H](CCC(N)=O)NC(=O)[C@@H](NC(=O)[C@H](C)NC(=O)[C@@H]1CSSC[C@H](NC(=O)[C@@H](N)CCCCN)C(=O)N[C@@H](CC(N)=O)C(=O)N[C@@H]([C@@H](C)O)C(=O)N[C@@H](C)C(=O)N[C@@H]([C@@H](C)O)C(=O)N1)[C@@H](C)O)C(=O)N[C@@H](CC(C)C)C(=O)N1CCC[C@H]1C(=O)N1CCC[C@H]1C(=O)N[C@H](C(=O)N[C@@H](CC(N)=O)C(=O)N[C@H](C(=O)NCC(=O)N[C@@H](CO)C(=O)N[C@@H](CC(N)=O)C(=O)N[C@H](C(=O)N[C@@H](Cc1ccc(O)cc1)C(N)=O)[C@@H](C)O)C(C)C)[C@@H](C)O [Example 73, N-epsilon25-[2-(2-{2-[2-(2-{2-[(S)-4-Carboxy-4-(17-carboxyheptadecanoylamino)butyrylamino]ethoxy}ethoxy)acetylamino]ethoxy}ethoxy)acetyl]-[Glu14,His17,Lys25]-pramlintide] (H-KCNTATCATQRLAEFLHHSSNNFGK([AEEA-AEEA-γGlu-C18 diacid])ILPPTNVGSNTY-NH2; disulfide 2-7 (inferred); N-terminus and C-terminus assumed) | 29% | 2%
